We go through eight compounds from ChEMBL document CHEMBL5465560, “Selectivity Literature for EUbOPEN Chemogenomic Library” (2024).

The structures appear in SMILES notation.

Experiment [1] addresses Ephrin type-A receptor 2 (Homo sapiens) (UniProt P29317). Description: Selectivity interaction (ProQinase) EUB0000171b EPHA2.
In experiment [2] the test system is Epidermal growth factor receptor (Homo sapiens), P00533 [L861Q]. As to conditions: at 10 µM.
Experiment [3] deals with MAP kinase-interacting serine/threonine-protein kinase 2 (Homo sapiens, UniProt Q9HBH9). As to conditions: at 10 µM.
Sequence of MAP kinase-interacting serine/threonine-protein kinase 2 (Q9HBH9 whole entry, looked up): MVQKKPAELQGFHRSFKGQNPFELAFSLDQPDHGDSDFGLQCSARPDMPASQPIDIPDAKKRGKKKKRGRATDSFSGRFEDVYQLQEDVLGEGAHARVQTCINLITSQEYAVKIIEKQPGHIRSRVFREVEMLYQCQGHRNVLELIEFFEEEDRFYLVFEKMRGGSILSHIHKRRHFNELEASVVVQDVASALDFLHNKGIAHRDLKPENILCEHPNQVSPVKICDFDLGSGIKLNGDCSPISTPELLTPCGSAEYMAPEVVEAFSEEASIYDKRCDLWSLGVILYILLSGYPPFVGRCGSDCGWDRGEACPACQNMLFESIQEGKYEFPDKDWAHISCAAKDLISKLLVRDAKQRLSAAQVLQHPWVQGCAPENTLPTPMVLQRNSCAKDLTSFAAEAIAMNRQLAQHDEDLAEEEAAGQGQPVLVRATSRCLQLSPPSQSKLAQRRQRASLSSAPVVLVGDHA
The target of experiment [4] is T1, Muscle, skeletal receptor tyrosine-protein kinase (Homo sapiens) (UniProt O15146).
T1 sequence (whole entry): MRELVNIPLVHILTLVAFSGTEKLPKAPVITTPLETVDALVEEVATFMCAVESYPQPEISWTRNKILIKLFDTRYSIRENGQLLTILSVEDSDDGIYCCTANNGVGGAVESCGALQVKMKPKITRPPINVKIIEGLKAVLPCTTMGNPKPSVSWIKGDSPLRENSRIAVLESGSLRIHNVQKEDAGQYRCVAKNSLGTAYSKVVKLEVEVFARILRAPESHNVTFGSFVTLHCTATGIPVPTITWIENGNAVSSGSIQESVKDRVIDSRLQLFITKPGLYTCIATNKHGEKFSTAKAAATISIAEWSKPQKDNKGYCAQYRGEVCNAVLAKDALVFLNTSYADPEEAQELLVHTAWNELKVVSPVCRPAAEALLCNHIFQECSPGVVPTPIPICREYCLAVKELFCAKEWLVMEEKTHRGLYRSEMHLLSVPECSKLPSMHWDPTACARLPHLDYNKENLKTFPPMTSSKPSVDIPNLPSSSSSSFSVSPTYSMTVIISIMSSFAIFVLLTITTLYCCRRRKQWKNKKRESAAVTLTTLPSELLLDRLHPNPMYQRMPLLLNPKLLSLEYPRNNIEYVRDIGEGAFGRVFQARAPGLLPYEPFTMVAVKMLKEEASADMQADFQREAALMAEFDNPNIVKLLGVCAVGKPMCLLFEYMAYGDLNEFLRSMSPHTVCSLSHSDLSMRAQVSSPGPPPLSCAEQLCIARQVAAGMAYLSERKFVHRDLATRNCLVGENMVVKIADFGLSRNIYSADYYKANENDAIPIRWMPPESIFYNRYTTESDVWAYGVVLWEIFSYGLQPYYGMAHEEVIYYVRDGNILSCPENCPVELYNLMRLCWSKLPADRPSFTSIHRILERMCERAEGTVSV
As to conditions: at 10 µM.

The target of experiment [5] is RAC-alpha serine/threonine-protein kinase (Homo sapiens, UniProt P31749). Conditions: at 10 µM.
Sequence of RAC-alpha serine/threonine-protein kinase (P31749 whole entry): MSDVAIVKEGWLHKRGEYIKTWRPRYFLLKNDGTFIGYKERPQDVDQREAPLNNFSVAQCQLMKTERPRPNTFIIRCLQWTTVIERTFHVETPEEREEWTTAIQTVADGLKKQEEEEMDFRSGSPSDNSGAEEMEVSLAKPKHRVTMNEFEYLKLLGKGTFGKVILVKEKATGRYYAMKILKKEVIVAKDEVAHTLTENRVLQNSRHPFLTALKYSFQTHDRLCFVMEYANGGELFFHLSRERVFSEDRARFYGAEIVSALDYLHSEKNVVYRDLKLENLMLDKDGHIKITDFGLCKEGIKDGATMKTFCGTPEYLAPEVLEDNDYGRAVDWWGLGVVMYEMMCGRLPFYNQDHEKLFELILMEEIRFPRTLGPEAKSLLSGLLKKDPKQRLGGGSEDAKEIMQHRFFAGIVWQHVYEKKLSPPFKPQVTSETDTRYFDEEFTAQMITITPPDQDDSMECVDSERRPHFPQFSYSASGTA
In experiment [6] the target is Mitogen-activated protein kinase kinase kinase 1 (Homo sapiens, UniProt Q13233). Put plainly: Selectivity interaction (KinomeScan (DiscoverX)) EUB0001079a MAP3K1. Conditions: at 1 µM.
For experiment [7], the target named is Ephrin type-A receptor 7 (Homo sapiens) (UniProt Q15375). Description: Selectivity interaction (KinomeScan (DiscoverX)) EUB0000092b EPHA7. Conditions: at 10 µM.
Sequence of Ephrin type-A receptor 7 (Homo sapiens) (Q15375 28-998 limits assumed): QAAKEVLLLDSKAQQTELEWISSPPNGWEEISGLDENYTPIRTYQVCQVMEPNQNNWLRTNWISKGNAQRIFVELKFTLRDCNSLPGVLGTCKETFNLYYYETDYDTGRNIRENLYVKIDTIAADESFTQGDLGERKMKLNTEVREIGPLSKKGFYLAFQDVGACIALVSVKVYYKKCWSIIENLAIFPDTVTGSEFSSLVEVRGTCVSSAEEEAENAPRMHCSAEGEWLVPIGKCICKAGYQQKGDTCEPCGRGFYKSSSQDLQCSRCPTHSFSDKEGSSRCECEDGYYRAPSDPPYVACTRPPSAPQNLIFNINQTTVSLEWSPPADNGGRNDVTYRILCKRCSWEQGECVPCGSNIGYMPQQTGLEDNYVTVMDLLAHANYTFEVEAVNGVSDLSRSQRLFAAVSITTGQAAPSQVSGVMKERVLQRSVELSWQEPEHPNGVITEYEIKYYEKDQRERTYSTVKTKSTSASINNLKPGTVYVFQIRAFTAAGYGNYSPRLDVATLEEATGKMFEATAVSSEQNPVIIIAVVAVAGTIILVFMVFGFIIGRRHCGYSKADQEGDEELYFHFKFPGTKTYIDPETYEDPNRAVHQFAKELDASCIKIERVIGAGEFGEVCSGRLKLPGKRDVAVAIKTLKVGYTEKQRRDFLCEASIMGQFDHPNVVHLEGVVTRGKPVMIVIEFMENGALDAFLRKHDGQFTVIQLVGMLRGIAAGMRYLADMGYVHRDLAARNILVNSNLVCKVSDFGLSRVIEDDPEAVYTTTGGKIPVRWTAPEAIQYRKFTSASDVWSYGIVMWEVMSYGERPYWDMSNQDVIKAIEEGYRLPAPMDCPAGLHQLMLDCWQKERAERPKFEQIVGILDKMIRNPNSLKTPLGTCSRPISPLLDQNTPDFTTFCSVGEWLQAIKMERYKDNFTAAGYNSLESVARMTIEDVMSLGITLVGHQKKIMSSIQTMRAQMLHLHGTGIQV
Experiment [8] deals with Macrophage colony-stimulating factor 1 receptor (Homo sapiens) (UniProt P07333). Description: Selectivity interaction (KinomeScan (DiscoverX)) EUB0000092b CSF1R. Conditions: at 10 µM.
Sequence of Macrophage colony-stimulating factor 1 receptor (Homo sapiens) (P07333 whole entry): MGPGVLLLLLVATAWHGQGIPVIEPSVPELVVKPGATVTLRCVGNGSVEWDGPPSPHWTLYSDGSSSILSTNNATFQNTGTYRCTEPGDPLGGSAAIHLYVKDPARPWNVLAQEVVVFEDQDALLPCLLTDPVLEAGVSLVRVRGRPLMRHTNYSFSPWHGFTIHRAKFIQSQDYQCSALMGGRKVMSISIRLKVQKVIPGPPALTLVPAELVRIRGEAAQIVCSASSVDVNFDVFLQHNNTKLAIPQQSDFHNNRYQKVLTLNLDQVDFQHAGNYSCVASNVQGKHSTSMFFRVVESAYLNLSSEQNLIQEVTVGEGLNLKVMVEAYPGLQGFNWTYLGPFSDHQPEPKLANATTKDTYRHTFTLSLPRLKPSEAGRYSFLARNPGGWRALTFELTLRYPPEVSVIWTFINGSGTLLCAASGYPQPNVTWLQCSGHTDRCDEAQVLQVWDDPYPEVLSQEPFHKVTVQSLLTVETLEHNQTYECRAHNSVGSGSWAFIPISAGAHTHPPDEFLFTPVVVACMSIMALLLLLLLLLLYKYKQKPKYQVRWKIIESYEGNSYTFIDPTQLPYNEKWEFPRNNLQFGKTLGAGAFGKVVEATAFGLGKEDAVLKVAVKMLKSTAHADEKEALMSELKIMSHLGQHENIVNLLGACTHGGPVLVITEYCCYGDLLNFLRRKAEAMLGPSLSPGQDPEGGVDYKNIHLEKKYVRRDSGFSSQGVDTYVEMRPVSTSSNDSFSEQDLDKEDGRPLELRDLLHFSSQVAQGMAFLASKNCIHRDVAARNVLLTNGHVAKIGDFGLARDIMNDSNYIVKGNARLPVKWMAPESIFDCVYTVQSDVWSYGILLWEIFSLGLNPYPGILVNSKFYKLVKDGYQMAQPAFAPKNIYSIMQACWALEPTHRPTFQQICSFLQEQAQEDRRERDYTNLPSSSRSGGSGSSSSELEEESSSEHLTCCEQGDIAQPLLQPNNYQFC
Experiment [9] concerns the target T2, Serine/threonine-protein kinase 17B (Homo sapiens) (UniProt O94768).
T2 sequence (whole entry): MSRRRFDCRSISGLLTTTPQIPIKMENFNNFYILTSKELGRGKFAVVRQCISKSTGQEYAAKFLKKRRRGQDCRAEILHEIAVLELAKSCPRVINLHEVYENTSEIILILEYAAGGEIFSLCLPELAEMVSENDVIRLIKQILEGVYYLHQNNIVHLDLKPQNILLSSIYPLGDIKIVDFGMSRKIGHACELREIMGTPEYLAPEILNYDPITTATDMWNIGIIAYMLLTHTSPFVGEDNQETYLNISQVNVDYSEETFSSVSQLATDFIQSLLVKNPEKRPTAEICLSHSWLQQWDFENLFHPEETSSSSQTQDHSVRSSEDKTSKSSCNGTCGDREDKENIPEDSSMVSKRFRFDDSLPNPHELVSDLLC
Put plainly: Selectivity interaction (KinomeScan (DiscoverX)) EUB0000666a STK17B. As to conditions: at 10 µM.

The target in experiment [10] is Casein kinase II subunit alpha (Homo sapiens, UniProt P68400). Put plainly: Selectivity interaction (Kinase panel (DSF assay)) EUB0001559a CSNK2A1. (In DSF a fluorescence change marks the thermal transition of the protein.)
Experiment [11] has as its target T3, Serine/threonine-protein kinase LATS2 (Homo sapiens) (UniProt Q9NRM7).
T3 sequence (whole entry): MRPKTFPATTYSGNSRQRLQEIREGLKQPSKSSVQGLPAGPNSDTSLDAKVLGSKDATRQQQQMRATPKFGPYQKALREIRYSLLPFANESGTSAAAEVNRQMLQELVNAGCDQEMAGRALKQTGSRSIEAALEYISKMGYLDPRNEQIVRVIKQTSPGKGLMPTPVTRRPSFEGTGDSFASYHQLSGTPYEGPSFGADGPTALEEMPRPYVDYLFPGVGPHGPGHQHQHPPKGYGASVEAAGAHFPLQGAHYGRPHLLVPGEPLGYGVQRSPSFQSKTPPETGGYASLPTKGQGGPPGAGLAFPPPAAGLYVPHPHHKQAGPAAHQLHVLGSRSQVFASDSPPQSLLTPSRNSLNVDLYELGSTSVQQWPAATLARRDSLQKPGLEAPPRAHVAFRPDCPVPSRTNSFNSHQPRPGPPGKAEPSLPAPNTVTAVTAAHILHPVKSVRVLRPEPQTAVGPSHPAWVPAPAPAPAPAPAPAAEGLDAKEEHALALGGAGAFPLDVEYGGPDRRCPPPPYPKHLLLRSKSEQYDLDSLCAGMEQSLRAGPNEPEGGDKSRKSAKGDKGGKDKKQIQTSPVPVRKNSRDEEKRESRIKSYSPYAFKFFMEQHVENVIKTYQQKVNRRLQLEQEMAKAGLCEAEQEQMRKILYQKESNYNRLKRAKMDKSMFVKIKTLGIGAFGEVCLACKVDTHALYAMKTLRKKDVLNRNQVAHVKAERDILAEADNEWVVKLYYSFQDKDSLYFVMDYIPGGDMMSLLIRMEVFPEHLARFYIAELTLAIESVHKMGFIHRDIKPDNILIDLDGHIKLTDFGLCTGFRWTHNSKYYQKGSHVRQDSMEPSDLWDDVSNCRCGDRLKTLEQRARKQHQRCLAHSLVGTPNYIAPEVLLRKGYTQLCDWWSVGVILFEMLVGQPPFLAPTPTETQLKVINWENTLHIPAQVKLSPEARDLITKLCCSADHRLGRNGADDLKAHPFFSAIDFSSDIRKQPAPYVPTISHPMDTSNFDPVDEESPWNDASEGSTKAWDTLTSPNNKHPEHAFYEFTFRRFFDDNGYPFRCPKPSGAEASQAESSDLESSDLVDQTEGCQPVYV
Put plainly: Selectivity interaction (KinomeScan (DiscoverX)) EUB0000618a LATS2. Conditions: at 10 µM.

Experiment [12] addresses Serine/threonine-protein kinase NIM1 (Homo sapiens, UniProt Q8IY84). Description: Selectivity interaction (KinomeScan (DiscoverX)) EUB0000618a NIM1K. As to conditions: at 10 µM.

Sequence of Ephrin type-A receptor 2 (Homo sapiens) (P29317 whole entry): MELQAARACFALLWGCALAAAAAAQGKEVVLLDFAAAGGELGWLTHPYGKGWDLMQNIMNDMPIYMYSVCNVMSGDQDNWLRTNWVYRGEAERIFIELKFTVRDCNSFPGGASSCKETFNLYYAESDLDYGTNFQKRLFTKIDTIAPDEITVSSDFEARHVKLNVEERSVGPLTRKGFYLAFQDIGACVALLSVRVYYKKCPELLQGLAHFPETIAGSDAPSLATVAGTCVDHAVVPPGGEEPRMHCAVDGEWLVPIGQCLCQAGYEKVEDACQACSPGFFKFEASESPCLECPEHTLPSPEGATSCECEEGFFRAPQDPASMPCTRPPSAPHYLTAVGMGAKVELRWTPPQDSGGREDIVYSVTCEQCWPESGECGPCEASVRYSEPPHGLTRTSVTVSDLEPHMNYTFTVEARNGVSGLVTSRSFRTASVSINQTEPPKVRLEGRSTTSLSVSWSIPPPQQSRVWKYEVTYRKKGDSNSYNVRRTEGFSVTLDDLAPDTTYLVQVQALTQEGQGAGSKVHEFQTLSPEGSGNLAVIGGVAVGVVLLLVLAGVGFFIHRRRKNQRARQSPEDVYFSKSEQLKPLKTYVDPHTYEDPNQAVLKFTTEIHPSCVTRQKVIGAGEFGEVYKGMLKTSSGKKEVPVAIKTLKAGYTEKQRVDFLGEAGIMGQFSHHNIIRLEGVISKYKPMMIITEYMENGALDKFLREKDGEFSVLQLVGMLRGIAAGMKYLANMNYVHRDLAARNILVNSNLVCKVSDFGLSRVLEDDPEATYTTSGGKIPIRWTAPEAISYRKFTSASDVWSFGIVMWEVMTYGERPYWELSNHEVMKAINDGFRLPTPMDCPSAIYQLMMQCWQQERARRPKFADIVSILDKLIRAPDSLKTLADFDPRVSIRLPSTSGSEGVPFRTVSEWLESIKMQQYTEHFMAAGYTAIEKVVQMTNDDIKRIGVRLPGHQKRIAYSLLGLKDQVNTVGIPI
Sequence of Epidermal growth factor receptor (Homo sapiens), P00533 [L861Q] (P00533 whole entry L861Q): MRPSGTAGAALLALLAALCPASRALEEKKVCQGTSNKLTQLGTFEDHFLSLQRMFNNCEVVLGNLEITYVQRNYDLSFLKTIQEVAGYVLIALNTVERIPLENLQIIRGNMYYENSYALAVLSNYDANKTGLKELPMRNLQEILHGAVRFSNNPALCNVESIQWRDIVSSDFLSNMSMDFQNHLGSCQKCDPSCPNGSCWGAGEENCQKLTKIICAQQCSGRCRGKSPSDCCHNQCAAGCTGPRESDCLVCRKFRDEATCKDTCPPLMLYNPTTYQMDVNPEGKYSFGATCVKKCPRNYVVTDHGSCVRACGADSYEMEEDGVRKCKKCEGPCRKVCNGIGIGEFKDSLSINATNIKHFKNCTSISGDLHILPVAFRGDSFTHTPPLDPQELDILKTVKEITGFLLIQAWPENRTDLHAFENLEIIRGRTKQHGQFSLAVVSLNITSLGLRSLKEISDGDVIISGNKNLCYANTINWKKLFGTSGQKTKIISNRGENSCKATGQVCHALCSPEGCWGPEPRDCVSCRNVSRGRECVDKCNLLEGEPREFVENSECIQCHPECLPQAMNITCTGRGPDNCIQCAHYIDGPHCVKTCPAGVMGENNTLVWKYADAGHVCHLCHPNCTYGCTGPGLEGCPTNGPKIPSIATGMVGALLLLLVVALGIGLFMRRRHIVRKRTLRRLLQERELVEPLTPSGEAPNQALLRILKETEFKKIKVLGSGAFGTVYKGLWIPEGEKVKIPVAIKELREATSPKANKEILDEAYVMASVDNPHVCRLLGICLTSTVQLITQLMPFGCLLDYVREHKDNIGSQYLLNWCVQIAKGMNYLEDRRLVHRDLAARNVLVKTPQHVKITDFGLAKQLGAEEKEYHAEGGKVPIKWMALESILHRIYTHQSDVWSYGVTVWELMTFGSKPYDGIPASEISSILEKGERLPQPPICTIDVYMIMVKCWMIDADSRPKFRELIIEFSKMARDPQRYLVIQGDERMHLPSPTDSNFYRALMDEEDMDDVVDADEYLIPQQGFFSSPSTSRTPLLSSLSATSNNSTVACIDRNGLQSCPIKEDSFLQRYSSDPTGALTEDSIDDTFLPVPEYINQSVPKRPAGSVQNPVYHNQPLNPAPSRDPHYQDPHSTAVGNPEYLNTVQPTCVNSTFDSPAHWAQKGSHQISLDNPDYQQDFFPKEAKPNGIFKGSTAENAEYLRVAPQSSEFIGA

Turning to `C=CC(=O)Nc1cccc(C(=O)Nc2ccc(Nc3cc(-c4[nH]c(SC)nc4C)ccn3)cc2)c1`, the % of control worked out at 92% in [1] (at 1 µM) and 81% in [1] (at 5 µM).

As to `Cc1cc([C@@H](C)Nc2ccccc2C(=O)O)c2nc(N3CCOCC3)cc(=O)n2c1` [AZD-6482], the figures for the % of control in [2], in experiment [3] and in experiment [4] were 100%, 92% and 100%, respectively.

As for `CCN(CC)CCCCNc1ncc2cc(-c3cc(OC)cc(OC)c3)c(NC(=O)NC(C)(C)C)nc2n1`, the % of control in experiment [5] worked out at 100%.

Regarding `Nc1cnc(N2CCc3cc(S(=O)(=O)Nc4c(F)cc(Cl)cc4F)cc(N4CCCC4=O)c32)nc1` [TP-020n], the % of control in experiment [6] was determined as 100%.

On to `CCC(=O)N1CCN(c2ccc(-n3c(=O)ccc4cnc5ccc(-c6cnc7ccccc7c6)cc5c43)cc2C(F)(F)F)CC1`, for which the figures for the % of control in [7] and in experiment [8] were 98% and 24%, respectively.

In [9], `O=C(NOC[C@H](O)CO)c1ccc(F)c(F)c1Nc1ccc(I)cc1F` came in with a % of control of 100%.

`CN(C(=O)c1cnn2cccnc12)c1cc2c(cc1N1CCOCC1)C(=O)N(C[C@@H](F)C(C)(C)O)C2` gave a dTM in experiment [10] of -0.4 K.

For `O[C@H]1CC[C@H](Nc2ncc3nc(Nc4c(F)cc(F)cc4F)n([C@H]4CCOC4)c3n2)CC1`, the % of control in experiment [11] is 88%; in experiment [12], 100%.
